From ChEMBL document CHEMBL2029229, “Structure-activity relationship of a series of non peptidic RGD integrin antagonists targeting α5β1: part 1” (Bioorg Med Chem Lett, 2012) come the findings set out here.

Series [1] in a line: Dissociation constant, pKa of the compound. The format is physicochemical.
The test system of the next series is A375M. Kind of series: Selectivity ratio of IC50 for integrin alphavbeta3alpha5beta1-mediated human A375M cells adhesion to fibronectin in absence of MK-0429 to IC50 for integrin alpha5beta1-mediated human A375M cells adhesion to fibronectin in presence of MK-0429. The format is cell-based.
The next series addresses Integrin alpha-V/beta-3 (Homo sapiens, UniProt P05106+P06756). Kind of series: Antagonist activity at integrin alphavbeta3 in human A375M cells assessed as inhibition of cell adhesion to fibrinogen in presence of Mg2+. The format is functional, cell-based.
Series [2] addresses T1, Integrin alpha-5/beta-1 (Homo sapiens, UniProt P05556+P08648). Kind of series: Binding affinity to integrin alpha5beta1. Type of series: protein-complex assay.
Series [3] deals with Integrin alpha-IIb/beta-3 (Homo sapiens, UniProt P05106+P08514). Kind of series: Inhibition of integrin alpha2b beta3. Type of series: protein-complex assay.
The target in series [4] is T1, Integrin alpha-5/beta-1. Kind of series: Antagonist activity at integrin alpha5beta1 in human K562 cells assessed as inhibition of cell adhesion in presence of 630 uM human serum albumin. The format is functional, cell-based.
Series [5] can be described thus: Fraction unbound in rat plasma. The format is ADME, cell-free.
For series [6], the target named is Fibronectin receptor (Integrin alpha-5/beta-1 and alpha-V/beta-3) (Homo sapiens, UniProt P05106+P05556+P06756+P08648). Kind of series: Antagonist activity at integrin alphavbeta3alpha5beta1 in human A375M cells assessed as inhibition of cell adhesion to fibronectin in presence of Mg2+. The format is functional, cell-based.
The target in series [7] is T1, Integrin alpha-5/beta-1. Kind of series: Antagonist activity at integrin alpha5beta1 in human K562 cells assessed as inhibition of cell adhesion. Type of series: functional, cell-based.
Series [8] deals with T1, Integrin alpha-5/beta-1. Kind of series: Antagonist activity at integrin alpha5beta1 in human A375M cells assessed as inhibition of cell adhesion to fibronectin in presence of Mg2+ and MK-0429. Type of series: functional, cell-based.

Sequence of Integrin alpha-V/beta-3 (P05106 27-788 limits assumed): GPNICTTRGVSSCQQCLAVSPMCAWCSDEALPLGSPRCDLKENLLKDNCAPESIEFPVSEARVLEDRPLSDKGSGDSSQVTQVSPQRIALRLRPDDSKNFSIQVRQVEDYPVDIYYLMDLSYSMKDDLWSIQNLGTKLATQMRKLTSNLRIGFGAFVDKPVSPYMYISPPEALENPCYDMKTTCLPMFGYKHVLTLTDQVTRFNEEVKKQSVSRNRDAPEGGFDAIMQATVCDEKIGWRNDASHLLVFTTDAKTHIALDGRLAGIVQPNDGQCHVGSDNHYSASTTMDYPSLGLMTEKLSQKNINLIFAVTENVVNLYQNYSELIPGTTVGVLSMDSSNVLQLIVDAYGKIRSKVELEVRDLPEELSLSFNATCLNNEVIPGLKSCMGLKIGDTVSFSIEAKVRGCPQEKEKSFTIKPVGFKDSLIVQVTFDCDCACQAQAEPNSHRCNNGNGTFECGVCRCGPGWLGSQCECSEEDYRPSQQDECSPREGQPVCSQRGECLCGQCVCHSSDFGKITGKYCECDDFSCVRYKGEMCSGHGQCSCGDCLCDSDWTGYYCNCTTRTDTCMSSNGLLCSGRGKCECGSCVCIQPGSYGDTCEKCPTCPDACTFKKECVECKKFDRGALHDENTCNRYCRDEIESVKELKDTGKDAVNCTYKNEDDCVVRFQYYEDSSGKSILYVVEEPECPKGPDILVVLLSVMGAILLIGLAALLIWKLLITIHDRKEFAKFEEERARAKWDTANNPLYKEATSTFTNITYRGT
Sequence of Integrin alpha-V/beta-3 (P06756 31-889 limits assumed): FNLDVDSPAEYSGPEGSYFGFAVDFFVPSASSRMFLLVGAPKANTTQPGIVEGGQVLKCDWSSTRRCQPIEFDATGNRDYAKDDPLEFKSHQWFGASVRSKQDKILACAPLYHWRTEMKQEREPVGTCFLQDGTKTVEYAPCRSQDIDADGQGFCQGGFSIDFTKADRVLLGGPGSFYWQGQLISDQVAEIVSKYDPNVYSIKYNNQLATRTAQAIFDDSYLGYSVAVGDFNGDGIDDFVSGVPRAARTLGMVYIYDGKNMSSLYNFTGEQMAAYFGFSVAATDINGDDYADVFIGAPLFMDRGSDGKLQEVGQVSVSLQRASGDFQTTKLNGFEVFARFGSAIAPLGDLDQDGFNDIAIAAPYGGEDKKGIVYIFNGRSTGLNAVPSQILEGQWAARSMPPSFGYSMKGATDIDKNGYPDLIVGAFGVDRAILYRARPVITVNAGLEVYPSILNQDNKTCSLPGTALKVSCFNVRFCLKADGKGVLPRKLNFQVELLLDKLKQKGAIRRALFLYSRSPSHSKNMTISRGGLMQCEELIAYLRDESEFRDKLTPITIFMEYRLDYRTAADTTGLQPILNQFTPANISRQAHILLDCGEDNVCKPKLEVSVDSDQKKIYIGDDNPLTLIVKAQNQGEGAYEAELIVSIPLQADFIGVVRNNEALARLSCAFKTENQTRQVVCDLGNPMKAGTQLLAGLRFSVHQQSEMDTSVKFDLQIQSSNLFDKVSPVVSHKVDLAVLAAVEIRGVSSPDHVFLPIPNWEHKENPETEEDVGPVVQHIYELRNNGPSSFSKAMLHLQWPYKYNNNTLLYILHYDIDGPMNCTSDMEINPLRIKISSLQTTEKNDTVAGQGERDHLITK
Sequence of Integrin alpha-V/beta-3 (P06756 891-1048 limits assumed): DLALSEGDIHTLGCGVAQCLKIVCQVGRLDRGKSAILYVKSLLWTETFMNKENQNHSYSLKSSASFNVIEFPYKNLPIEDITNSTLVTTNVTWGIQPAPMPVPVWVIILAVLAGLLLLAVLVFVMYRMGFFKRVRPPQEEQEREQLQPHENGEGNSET
Sequence of Integrin alpha-IIb/beta-3 (P05106 27-788 limits assumed): as the sequence (P05106 27-788 limits assumed) above
Sequence of Integrin alpha-IIb/beta-3 (P08514 32-887 limits assumed): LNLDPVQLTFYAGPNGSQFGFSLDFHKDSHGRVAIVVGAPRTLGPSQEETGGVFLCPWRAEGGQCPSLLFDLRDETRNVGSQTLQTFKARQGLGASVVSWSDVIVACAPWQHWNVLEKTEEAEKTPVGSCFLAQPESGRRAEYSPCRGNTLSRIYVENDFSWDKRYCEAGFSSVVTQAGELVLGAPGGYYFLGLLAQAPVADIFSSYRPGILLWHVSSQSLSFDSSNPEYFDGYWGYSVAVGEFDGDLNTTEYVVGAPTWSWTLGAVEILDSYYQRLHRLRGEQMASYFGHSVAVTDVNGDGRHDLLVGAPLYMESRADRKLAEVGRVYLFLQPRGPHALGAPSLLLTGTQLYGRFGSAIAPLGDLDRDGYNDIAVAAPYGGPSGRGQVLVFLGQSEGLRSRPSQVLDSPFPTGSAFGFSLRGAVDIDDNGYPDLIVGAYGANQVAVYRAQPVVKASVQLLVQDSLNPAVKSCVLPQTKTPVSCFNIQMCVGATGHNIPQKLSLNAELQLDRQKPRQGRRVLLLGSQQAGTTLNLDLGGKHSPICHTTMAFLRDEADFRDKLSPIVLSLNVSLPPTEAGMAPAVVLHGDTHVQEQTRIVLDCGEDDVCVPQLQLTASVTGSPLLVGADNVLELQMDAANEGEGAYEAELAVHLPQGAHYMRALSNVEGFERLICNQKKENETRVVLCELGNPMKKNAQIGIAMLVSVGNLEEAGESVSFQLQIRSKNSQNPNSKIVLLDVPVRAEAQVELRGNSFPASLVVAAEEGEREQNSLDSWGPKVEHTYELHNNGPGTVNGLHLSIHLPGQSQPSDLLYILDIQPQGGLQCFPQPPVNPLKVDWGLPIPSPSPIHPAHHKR
Sequence of Integrin alpha-IIb/beta-3 (P08514 891-1039 limits assumed): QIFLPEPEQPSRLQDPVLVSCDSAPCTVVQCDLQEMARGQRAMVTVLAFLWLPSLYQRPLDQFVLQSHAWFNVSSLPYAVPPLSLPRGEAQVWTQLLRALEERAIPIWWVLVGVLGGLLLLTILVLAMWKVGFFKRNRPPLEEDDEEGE
T1 sequence (P05556 21-798 limits assumed): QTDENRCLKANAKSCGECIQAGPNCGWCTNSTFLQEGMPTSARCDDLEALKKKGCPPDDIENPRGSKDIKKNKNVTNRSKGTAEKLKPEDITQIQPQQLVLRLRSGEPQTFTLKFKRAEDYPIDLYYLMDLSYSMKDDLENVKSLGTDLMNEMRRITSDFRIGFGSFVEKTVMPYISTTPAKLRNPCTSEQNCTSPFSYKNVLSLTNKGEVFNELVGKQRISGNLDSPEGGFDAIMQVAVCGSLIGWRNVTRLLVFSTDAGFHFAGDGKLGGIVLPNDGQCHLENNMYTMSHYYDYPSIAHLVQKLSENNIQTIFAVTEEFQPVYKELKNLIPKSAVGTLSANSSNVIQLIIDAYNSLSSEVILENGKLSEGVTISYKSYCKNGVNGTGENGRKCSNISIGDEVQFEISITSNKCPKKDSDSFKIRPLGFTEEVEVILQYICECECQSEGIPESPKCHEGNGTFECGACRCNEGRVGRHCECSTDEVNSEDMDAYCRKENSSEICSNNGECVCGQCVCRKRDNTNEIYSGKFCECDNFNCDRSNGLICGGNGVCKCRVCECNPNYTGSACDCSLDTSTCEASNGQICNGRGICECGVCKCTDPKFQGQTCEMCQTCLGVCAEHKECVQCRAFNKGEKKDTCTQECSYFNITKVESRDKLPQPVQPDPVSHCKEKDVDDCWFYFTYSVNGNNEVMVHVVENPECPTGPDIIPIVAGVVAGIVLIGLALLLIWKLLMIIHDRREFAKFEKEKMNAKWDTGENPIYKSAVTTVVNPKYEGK
T1 sequence (P08648 42-894 limits assumed): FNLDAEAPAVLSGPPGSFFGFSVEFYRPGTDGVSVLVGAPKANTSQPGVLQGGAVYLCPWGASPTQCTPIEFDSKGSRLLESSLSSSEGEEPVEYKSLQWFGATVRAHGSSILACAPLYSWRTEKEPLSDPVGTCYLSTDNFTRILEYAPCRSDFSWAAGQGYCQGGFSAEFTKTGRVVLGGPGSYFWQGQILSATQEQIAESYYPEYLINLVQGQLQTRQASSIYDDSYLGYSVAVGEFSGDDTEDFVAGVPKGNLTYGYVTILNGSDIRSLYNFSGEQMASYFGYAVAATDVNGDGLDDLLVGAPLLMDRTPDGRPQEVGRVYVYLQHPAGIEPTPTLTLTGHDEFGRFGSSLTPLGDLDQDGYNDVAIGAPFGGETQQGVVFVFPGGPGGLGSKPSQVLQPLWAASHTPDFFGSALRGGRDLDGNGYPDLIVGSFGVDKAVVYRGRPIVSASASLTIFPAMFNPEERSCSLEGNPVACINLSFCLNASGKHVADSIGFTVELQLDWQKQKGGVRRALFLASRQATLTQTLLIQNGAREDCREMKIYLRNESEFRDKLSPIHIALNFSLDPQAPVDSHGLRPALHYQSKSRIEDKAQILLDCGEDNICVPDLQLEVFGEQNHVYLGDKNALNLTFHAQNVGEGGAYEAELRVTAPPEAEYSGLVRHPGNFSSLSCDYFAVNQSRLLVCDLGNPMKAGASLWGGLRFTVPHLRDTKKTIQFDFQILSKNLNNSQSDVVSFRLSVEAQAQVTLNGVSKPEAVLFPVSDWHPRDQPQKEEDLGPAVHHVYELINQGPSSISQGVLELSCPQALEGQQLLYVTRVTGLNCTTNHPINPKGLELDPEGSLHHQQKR
T1 sequence (P08648 895-1049 limits assumed): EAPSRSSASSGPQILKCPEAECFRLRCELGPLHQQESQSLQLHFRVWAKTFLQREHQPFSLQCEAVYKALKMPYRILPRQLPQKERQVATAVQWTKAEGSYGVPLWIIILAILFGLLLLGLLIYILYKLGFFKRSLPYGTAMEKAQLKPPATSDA

`CNc1cccc(CCOc2ccc(C[C@H](NC(=O)c3c(Cl)cccc3Cl)C(=O)O)cc2)n1` returned a pKa in [1] of 7. Moreover, in the series with A375M, the Ratio IC50 turned out to be 2.4. In addition, the IC50 on Integrin alpha-V/beta-3 worked out at 7 nM.

As to `O=C(N[C@@H](Cc1ccc(OCCc2ccc3c(n2)NCCC3)cc1)C(=O)O)c1c(Cl)cccc1Cl`, the IC50 on Integrin alpha-5/beta-1 [2] was under 1 nM; in series [3], over 10000 nM; on Integrin alpha-5/beta-1 [4], 29 nM; in series [6], 9 nM; on Integrin alpha-5/beta-1 [7] it was under 3 nM; at Integrin alpha-V/beta-3 it was 1 nM. The compound also displayed a pKa in series [1] of 7.6. This compound yielded an unbound share (fraction unbound) in series [5] of 0.007. The Ratio IC50 in the series with A375M amounted to 4.5.

`Nc1cccc(CCOc2ccc(C[C@H](NC(=O)c3c(Cl)cccc3Cl)C(=O)O)cc2)n1`: the half-maximal inhibitory concentration (IC50) on Integrin alpha-5/beta-1 [2] was under 1 nM; on Integrin alpha-5/beta-1 [7] it was 9 nM.

Turning to `O=C(N[C@@H](Cc1ccc(OCCc2cccc(NCC3CC3)n2)cc1)C(=O)O)c1c(Cl)cccc1Cl`, the half-maximal inhibitory concentration (IC50) at Integrin alpha-5/beta-1 [2] is 3 nM; at Integrin alpha-5/beta-1 [7], under 41 nM.

As for `Cc1cc(C)c(C(=O)N[C@@H](CNC(=O)CO[C@@H]2C[C@@H](CNc3ccccn3)N(C(=O)OCc3ccccc3)C2)C(=O)O)c(C)c1`, the IC50 came to 200 nM at Integrin alpha-5/beta-1 [8], 3200 nM in series [6], 586 nM at Integrin alpha-5/beta-1 [7] and 1200 nM on Integrin alpha-V/beta-3. Moreover, the Ratio IC50 in the series on A375M was determined as 15.

As for `O=C(NCc1ccc2c(n1)NCCC2)c1ccc(C[C@H](NC(=O)c2c(Cl)cccc2Cl)C(=O)O)cc1`, the half-maximal inhibitory concentration (IC50) amounted to 5 nM on Integrin alpha-5/beta-1 [2]; 1400 nM on Integrin alpha-5/beta-1 [8]; 8400 nM in [6]; 120 nM at Integrin alpha-5/beta-1 [7]; 350 nM on Integrin alpha-V/beta-3. Also, the pKa in series [1] came out at 6.8. Moreover, the Ratio IC50 in the series on A375M was determined as 5.9.

As for `O=C(N[C@@H](Cc1ccc(CCCc2ccc3c(n2)NCCC3)cc1)C(=O)O)c1c(Cl)cccc1Cl`, the IC50 at Integrin alpha-5/beta-1 [2] was under 1 nM; in [3], over 10000 nM; on Integrin alpha-5/beta-1 [4], 450 nM; at Integrin alpha-5/beta-1 [7], under 8 nM. In [5], this compound registered a free fraction (fraction unbound) of 0.006.

For the compound `O=C(N[C@@H](Cc1ccc(OCCCCNc2ccccn2)cc1)C(=O)O)c1c(Cl)cccc1Cl`, the IC50 came to 54 nM on Integrin alpha-5/beta-1 [2] and 710 nM on Integrin alpha-5/beta-1 [7].

The compound `O=C(N[C@@H](Cc1ccc(OCCCNc2ccccn2)cc1)C(=O)O)c1c(Cl)cccc1Cl` yielded a pKa in series [1] of 7.1. The Ratio IC50 with A375M was 4. Moreover, at Integrin alpha-V/beta-3, the IC50 was 84 nM.

Regarding `CNc1cccc(CCCc2ccc(C[C@H](NC(=O)c3c(Cl)cccc3Cl)C(=O)O)cc2)n1`, the pKa in [1] was found to be 7.6.

Consider `O=C(N[C@@H](Cc1ccc(OCCNc2nc3ccccc3s2)cc1)C(=O)O)c1c(Cl)cccc1Cl`, for which the 50% inhibitory concentration (IC50) was 970 nM at Integrin alpha-5/beta-1 [2] and 2400 nM on Integrin alpha-5/beta-1 [7]. In series [1], the pKa came out at 4.3.

Consider `O=C(N[C@@H](Cc1ccc(C#CCCNc2ccccn2)cc1)C(=O)O)c1c(Cl)cccc1Cl`, for which the IC50 at Integrin alpha-5/beta-1 [2] worked out at 69 nM; on Integrin alpha-5/beta-1 [7], 2100 nM. In addition, in series [1], the pKa came to 6.7.

Regarding `CN1CCNc2nc(CCOc3ccc(C[C@H](NC(=O)c4c(Cl)cccc4Cl)C(=O)O)cc3)ccc21`, the half-maximal inhibitory concentration (IC50) was 1 nM on Integrin alpha-5/beta-1 [2]; 150 nM at Integrin alpha-5/beta-1 [8]; over 10000 nM in [3]; under 56 nM on Integrin alpha-5/beta-1 [4]; 250 nM in series [6]; under 8 nM on Integrin alpha-5/beta-1 [7]. Moreover, the IC50 on Integrin alpha-V/beta-3 stood at 23 nM. In [1], the pKa turned out to be 7.1. In [5], the fraction unbound came to 0.015. The Ratio IC50 in the series on A375M stood at 1.6.

Consider `O=C(N[C@@H](Cc1ccc(OCCNc2nc3ccccc3[nH]2)cc1)C(=O)O)c1c(Cl)cccc1Cl`, for which the IC50 at Integrin alpha-5/beta-1 [2] came to 8 nM; at Integrin alpha-5/beta-1 [7], 160 nM. Besides, the pKa in series [1] worked out at 7.2.

For `O=C(N[C@@H](Cc1ccc(CCCCNc2ccccn2)cc1)C(=O)O)c1c(Cl)cccc1Cl`, the IC50 turned out to be 24 nM at Integrin alpha-5/beta-1 [2] and 1100 nM at Integrin alpha-5/beta-1 [7]. In addition, the pKa in [1] came to 7.2.

For `CN1CC(CCCOc2ccc(C[C@H](NC(=O)c3c(Cl)cccc3Cl)C(=O)O)cc2)C1`, the IC50 stood at 360 nM at Integrin alpha-5/beta-1 [2] and 58000 nM on Integrin alpha-5/beta-1 [7].

Turning to `O=C(N[C@@H](Cc1ccc(OCCc2ccc3c(n2)NCCO3)cc1)C(=O)O)c1c(Cl)cccc1Cl`, the IC50 at Integrin alpha-5/beta-1 [2] amounted to 1 nM; on Integrin alpha-5/beta-1 [8], 130 nM; in [6], 270 nM; at Integrin alpha-5/beta-1 [7], 10 nM; at Integrin alpha-V/beta-3 it was 17 nM. The compound further registered a pKa in series [1] of 6. For the same compound, the Ratio IC50 in the series on A375M is 2.1.

In the case of `NC(=O)NCCCOc1ccc(C[C@H](NC(=O)c2c(Cl)cccc2Cl)C(=O)O)cc1`, the half-maximal inhibitory concentration (IC50) at Integrin alpha-5/beta-1 [2] was determined as 150 nM; at Integrin alpha-5/beta-1 [7] it was 10000 nM.

On to `CNc1cccc(COCc2ccc(C[C@H](NC(=O)c3c(Cl)cccc3Cl)C(=O)O)cc2)n1`, for which the IC50 at Integrin alpha-5/beta-1 [2] came out at 220 nM; on Integrin alpha-5/beta-1 [7], 1400 nM. Moreover, in series [1], the pKa came out at 6.4.

With `O=C(N[C@@H](Cc1ccc(OCCNc2ccccn2)cc1)C(=O)O)c1c(Cl)cccc1Cl`, the pKa in series [1] stood at 6.7.

For `O=C(Cc1ccc2c(n1)NCCC2)Nc1ccc(C[C@H](NC(=O)c2c(Cl)cccc2Cl)C(=O)O)cc1`, the IC50 at Integrin alpha-5/beta-1 [2] worked out at 3 nM; on Integrin alpha-5/beta-1 [8] it was 210 nM; in series [6] it was 860 nM; on Integrin alpha-5/beta-1 [7] it was 84 nM; on Integrin alpha-V/beta-3, 49 nM. The Ratio IC50 with A375M came out at 4.

In the case of `O=C(N[C@@H](Cc1ccc(OCCc2cccc(NC3CCCC3)n2)cc1)C(=O)O)c1c(Cl)cccc1Cl`, the half-maximal inhibitory concentration (IC50) worked out at 83 nM at Integrin alpha-5/beta-1 [2] and 320 nM at Integrin alpha-5/beta-1 [7]. The pKa in [1] was 6.8.

`CN(C)c1cccc(CCOc2ccc(C[C@H](NC(=O)c3c(Cl)cccc3Cl)C(=O)O)cc2)n1`: the figures for the 50% inhibitory concentration (IC50) on Integrin alpha-5/beta-1 [2] and on Integrin alpha-5/beta-1 [7] were 140 nM and 2700 nM, respectively.

By pKa is commonly meant the pH at which an ionisable group is half protonated. A higher pKa goes with a weaker acid or stronger base. Broadly, the IC50 is the midpoint of a concentration-inhibition curve. Broadly, the fraction unbound is the share of the substance not bound to proteins or other matrix. A high value points to much free substance.
